Test results: ChEMBL document CHEMBL4219271, “Synthesis and anti-proliferative activity of allogibberic acid derivatives containing 1,2,3-triazole pharmacophore” (Bioorg Med Chem Lett, 2018)
pIC50: −log10 of the molar value.

What was measured:
Type in all cases: functional, cell-based
HL-60 = experiment: Cytotoxicity against human HL60 cells assessed as decrease in cell viability after 4 days by MTT assay; details: HL-60, 96 h
SMMC-7721 = experiment: Cytotoxicity against human SMMC7721 cells assessed as decrease in cell viability after 4 days by MTT assay; details: SMMC-7721, 96 h
A549 = experiment: Cytotoxicity against human A549 cells assessed as decrease in cell viability after 4 days by MTT assay; details: A549, 96 h
MCF7 = experiment: Cytotoxicity against human MCF7 cells assessed as decrease in cell viability after 4 days by MTT assay; details: MCF7, 96 h
SW480 = experiment: Cytotoxicity against human SW480 cells assessed as decrease in cell viability after 4 days by MTT assay; details: SW480, 96 h

SMILES	pIC50 (HL-60)	pIC50 (SMMC-7721)	pIC50 (A549)	pIC50 (MCF7)	pIC50 (SW480)
C=C1C[C@]23C[C@@]1(O)CC[C@H]2c1ccc(OS(=O)(=O)c2ccc(C)cc2)c(C)c1[C@@H]3Cn1cc(-c2ccccn2)nn1	< 4.70	< 4.70	< 4.70	< 4.70	< 4.70
C=C1C[C@]23C[C@@]1(O)CC[C@H]2c1cc(Br)c(O)c(C)c1[C@@H]3Cn1cc(-c2ccc(C(F)(F)F)cc2)nn1	5.13	4.89	5.03	5.09	4.82
C=C1C[C@]23C[C@@]1(O)CC[C@H]2c1ccc(O)c(C)c1[C@@H]3Cn1cc(-c2ccc(Cl)cc2)nn1	< 4.70	< 4.70	< 4.70	< 4.70	< 4.70
C=C1C[C@]23C[C@@]1(O)CC[C@H]2c1ccc(OS(=O)(=O)c2ccc(C)cc2)c(C)c1[C@@H]3Cn1cc(-c2ccc(F)cc2)nn1	< 4.70	< 4.70	< 4.70	< 4.70	< 4.70
Cc1c(O)ccc2c1[C@H](Cn1cc(-c3ccc(Cl)cc3)nn1)[C@@]13CC(=O)[C@@](C)(CC[C@@H]21)C3	< 4.70	< 4.70	< 4.70	< 4.70	< 4.70
C=C1C[C@]23C[C@@]1(O)CC[C@@H]2c1cccc(C)c1[C@@H]3Cn1cc(-c2ccc(C(F)(F)F)cc2)nn1	< 4.70	< 4.70	< 4.70	< 4.70	< 4.70
C=C1C[C@]23C[C@@]1(O)CC[C@H]2c1cc(Br)c(O)c(C)c1[C@@H]3Cn1cc(-c2ccc(C)cc2)nn1	< 4.70	< 4.70	< 4.70	< 4.70	< 4.70
C=C1C[C@]23C[C@@]1(O)CC[C@@H]2c1cccc(C)c1[C@@H]3Cn1cc(-c2ccccc2)nn1	< 4.70	< 4.70	< 4.70	< 4.70	< 4.70
Cc1ccc(S(=O)(=O)Oc2ccc3c(c2C)[C@H](Cn2cc(-c4ccccn4)nn2)[C@@]24CC(=O)[C@@](C)(CC[C@@H]32)C4)cc1	< 4.70	< 4.70	< 4.70	< 4.70	< 4.70
C=C1C[C@]23C[C@@]1(O)CC[C@H]2c1ccc(O)c(C)c1[C@@H]3Cn1cc(-c2ccccc2)nn1	< 4.70	< 4.70	< 4.70	< 4.70	< 4.70
Cc1ccc(S(=O)(=O)Oc2ccc3c(c2C)[C@H](Cn2cc(-c4ccc(Cl)cc4)nn2)[C@@]24CC(=O)[C@@](C)(CC[C@@H]32)C4)cc1	< 4.70	< 4.70	< 4.70	< 4.70	< 4.70
Cc1ccc(S(=O)(=O)Oc2ccc3c(c2C)[C@H](Cn2cc(-c4ccccc4)nn2)[C@@]24CC(=O)[C@@](C)(CC[C@@H]32)C4)cc1	< 4.70	< 4.70	< 4.70	< 4.70	< 4.70
C=C1C[C@]23C[C@@]1(O)CC[C@H]2c1ccc(OS(=O)(=O)c2ccc(C)cc2)c(C)c1[C@@H]3Cn1cc(-c2ccc(Br)cc2)nn1	< 4.70	< 4.70	< 4.70	< 4.70	< 4.70
C=C1C[C@]23C[C@@]1(O)CC[C@H]2c1ccc(OS(=O)(=O)c2ccc(C)cc2)c(C)c1[C@@H]3Cn1cc(-c2ccccc2)nn1	< 4.70	< 4.70	< 4.70	< 4.70	< 4.70
C=C1C[C@]23C[C@@]1(O)CC[C@@H]2c1cccc(C)c1[C@@H]3Cn1cc(-c2ccc(Br)cc2)nn1	< 4.70	< 4.70	< 4.70	< 4.70	< 4.70
C=C1C[C@]23C[C@@]1(O)CC[C@H]2c1ccc(O)c(C)c1[C@@H]3Cn1cc(-c2ccc(Br)cc2)nn1	< 4.70	< 4.70	< 4.70	< 4.70	< 4.70
C=C1C[C@]23C[C@@]1(O)CC[C@H]2c1ccc(O)c(C)c1[C@@H]3Cn1cc(-c2ccc(OC)cc2)nn1	< 4.70	< 4.70	< 4.70	< 4.70	< 4.70
C=C1C[C@]23C[C@@]1(O)CC[C@@H]2c1cccc(C)c1[C@@H]3Cn1cc(-c2ccc(F)cc2)nn1	< 4.70	< 4.70	< 4.70	< 4.70	< 4.70
Cc1ccc(-c2cn(C[C@H]3c4c(ccc(O)c4C)[C@@H]4CC[C@@]5(C)C[C@]43CC5=O)nn2)cc1	< 4.70	< 4.70	< 4.70	< 4.70	< 4.70
C=C1C[C@]23C[C@@]1(O)CC[C@H]2c1ccc(OS(=O)(=O)c2ccc(C)cc2)c(C)c1[C@@H]3Cn1cc(-c2ccc(C)cc2)nn1	< 4.70	< 4.70	< 4.70	< 4.70	< 4.70

SMILES	pIC50 (HL-60)	pIC50 (SMMC-7721)	pIC50 (A549)	pIC50 (MCF7)	pIC50 (SW480)
C=C1C[C@]23C[C@@]1(O)CC[C@H]2c1ccc(O)c(C)c1[C@@H]3Cn1cc(-c2ccc(F)cc2)nn1	< 4.70	< 4.70	< 4.70	< 4.70	< 4.70
C=C1C[C@]23C[C@@]1(O)CC[C@H]2c1ccc(OS(=O)(=O)c2ccc(C)cc2)c(C)c1[C@@H]3Cn1cc(-c2ccc(C(F)(F)F)cc2)nn1	< 4.70	< 4.70	< 4.70	< 4.70	< 4.70
Cc1ccc(S(=O)(=O)Oc2ccc3c(c2C)[C@H](Cn2cc(-c4ccc(Br)cc4)nn2)[C@@]24CC(=O)[C@@](C)(CC[C@@H]32)C4)cc1	< 4.70	< 4.70	< 4.70	< 4.70	< 4.70
Cc1c(O)ccc2c1[C@H](Cn1cc(-c3ccc(F)cc3)nn1)[C@@]13CC(=O)[C@@](C)(CC[C@@H]21)C3	< 4.70	< 4.70	< 4.70	< 4.70	< 4.70
C=C1C[C@]23C[C@@]1(O)CC[C@@H]2c1cccc(C)c1[C@@H]3Cn1cc(-c2ccc(Cl)cc2)nn1	< 4.70	< 4.70	< 4.70	< 4.70	< 4.70
C=C1C[C@]23C[C@@]1(O)CC[C@H]2c1cc(Br)c(O)c(C)c1[C@@H]3Cn1cc(-c2ccc(F)cc2)nn1	5.18	< 4.70	4.75	4.72	< 4.70
Cc1c(O)ccc2c1[C@H](Cn1cc(-c3ccccn3)nn1)[C@@]13CC(=O)[C@@](C)(CC[C@@H]21)C3	< 4.70	< 4.70	< 4.70	< 4.70	< 4.70
C=C1C[C@]23C[C@@]1(O)CC[C@H]2c1ccc(OS(=O)(=O)c2ccc(C)cc2)c(C)c1[C@@H]3Cn1cc(-c2ccc(Cl)cc2)nn1	< 4.70	< 4.70	< 4.70	< 4.70	< 4.70
C=C1C[C@]23C[C@@]1(O)CC[C@@H]2c1cccc(C)c1[C@@H]3Cn1cc(-c2ccc(OC)cc2)nn1	< 4.70	< 4.70	< 4.70	< 4.70	< 4.70
Cc1c(O)ccc2c1[C@H](Cn1cc(-c3ccccc3)nn1)[C@@]13CC(=O)[C@@](C)(CC[C@@H]21)C3	< 4.70	< 4.70	< 4.70	< 4.70	< 4.70
C=C1C[C@]23C[C@@]1(O)CC[C@@H]2c1cccc(C)c1[C@@H]3Cn1cc(-c2ccccn2)nn1	< 4.70	< 4.70	< 4.70	< 4.70	< 4.70
C=C1C[C@]23C[C@@]1(O)CC[C@H]2c1cc(Br)c(O)c(C)c1[C@@H]3Cn1cc(-c2ccc(OC)cc2)nn1	< 4.70	< 4.70	< 4.70	< 4.70	< 4.70
COc1ccc(-c2cn(C[C@H]3c4c(ccc(O)c4C)[C@@H]4CC[C@@]5(C)C[C@]43CC5=O)nn2)cc1	< 4.70	< 4.70	< 4.70	< 4.70	< 4.70
C=C1C[C@]23C[C@@]1(O)CC[C@H]2c1cc(Br)c(O)c(C)c1[C@@H]3Cn1cc(-c2ccc(Cl)cc2)nn1	5.25	4.72	4.98	4.99	4.74
Cc1ccc(S(=O)(=O)Oc2ccc3c(c2C)[C@H](Cn2cc(-c4ccc(F)cc4)nn2)[C@@]24CC(=O)[C@@](C)(CC[C@@H]32)C4)cc1	< 4.70	< 4.70	< 4.70	< 4.70	< 4.70
CC(=O)O[C@H]1C(=O)[C@@]2(C)[C@H]([C@H](OC(=O)c3ccccc3)[C@]3(O)C[C@H](OC(=O)[C@H](O)[C@@H](NC(=O)c4ccccc4)c4ccccc4)C(C)=C1C3(C)C)[C@]1(OC(C)=O)CO[C@@H]1C[C@@H]2O [PACLITAXEL]	> 8.10	> 8.10	> 8.10	> 8.10	> 8.10
C=C1C[C@]23C[C@@]1(O)CC[C@H]2c1ccc(O)c(C)c1[C@@H]3Cn1cc(-c2ccccn2)nn1	< 4.70	< 4.70	< 4.70	< 4.70	< 4.70
C=C1C[C@]23C[C@@]1(O)CC[C@H]2c1ccc(OS(=O)(=O)c2ccc(C)cc2)c(C)c1[C@@H]3Cn1cc(-c2ccc(OC)cc2)nn1	< 4.70	< 4.70	< 4.70	< 4.70	< 4.70
C=C1C[C@]23C[C@@]1(O)CC[C@H]2c1ccc(O)c(C)c1[C@@H]3Cn1cc(-c2ccc(C(F)(F)F)cc2)nn1	5.05	< 4.70	4.98	4.91	< 4.70
